Experimental data reported in patent publication US20150196562A1, “FORMULATIONS OF 3-(5-AMINO-2-METHYL-4-OXO-4H-QUINAZOLIN-3-YL)-PIPERIDINE-2,6-DIONE” (Celgene Corporation, priority 2014, published 2015).

Experiment: Degradation of Compound A by hydrolysis
Assay type: physicochemical
Settings: water
From the text: Also provided herein are anhydrous pharmaceutical compositions and dosage forms including an active ingredient, since water can facilitate the degradation of some compounds. For example, the addition of water (e.g., 5 percent) is widely accepted in the pharmaceutical arts as a means of simulating shelf-life, i.e., long-term storage in order to determine characteristics such as shelf-life or the stability of formulations over time. See, e.g., Jens T. Carstensen, Drug Stability: Principles & Practice, 2d. Ed., Marcel Dekker, NY, N.Y., 1995, pp. 379-80. In effect, water and heat accelerate decomposition. Thus, the effect of water on a formulation can be of great significance since moisture and/or humidity are commonly encountered during manufacture, handling, packaging, storage, shipment, and use of formulations.

## Cc1nc2cccc(N)c2c(=O)n1C1CCC(=O)NC1=O (stereo not shown) [Compound A, 3-(5-amino-2-methyl-4-oxo-4H-quinazolin-3-yl)-piperidine-2,6-dione]
  degradation by hydrolysis: easily degraded by hydrolysis
